Drawing on ChEMBL document CHEMBL1795295, “Synthesis and antimycobacterial activity of highly functionalized tetrahydro-4(1H)-pyridinones” (2011), this text covers MIC for 38 compounds.

≈ marks a conversion by molar mass, not a printed value.

This test deals with Mycobacterium tuberculosis. As to the kind of experiment: Antimycobacterial activity against Mycobacterium tuberculosis H37Rv by agar dilution method. The test is classed as functional. (In general: In agar dilution the substance is mixed into plates at graded concentrations.)
Compound `N#CN1C(c2ccc(Cl)cc2)CC(=O)C(c2ccccc2)C1c1ccc(Cl)cc1` (stereo not drawn) had an MIC of 29.7 µM (≈ 12.5 µg/mL).

In the case of `O=NN1C(c2ccccc2Cl)C(c2ccccc2)C(=O)C(c2ccccc2)C1c1ccccc1Cl` (stereo not drawn), the MIC was 3.11 µM (≈ 1.56 µg/mL).

Turning to `COc1ccc(C2CC(=O)C(c3ccccc3)C(c3ccc(OC)cc3)N2C#N)cc1` (stereo not drawn), the lowest concentration to inhibit growth (MIC) was 30.3 µM (≈ 12.5 µg/mL).

Consider `O=C1C[C@H](c2ccc(Cl)cc2)N[C@H](c2ccc(Cl)cc2)[C@H]1c1ccccc1`, for which it took 31.5 µM (≈ 12.5 µg/mL) to inhibit growth (MIC).

`O=C1C[C@H](c2ccccc2Cl)N[C@H](c2ccccc2Cl)[C@H]1c1ccccc1` yielded an MIC of 31.5 µM (≈ 12.5 µg/mL). This lies in the double-digit micromolar range.

For the compound `NC(=O)c1cnccn1` [PYRAZINAMIDE], inhibition of growth (MIC) required 50.8 µM (≈ 6.25 µg/mL).

`O=C1[C@H](c2ccccc2)[C@@H](c2ccc(Cl)cc2)N[C@@H](c2ccc(Cl)cc2)[C@@H]1c1ccccc1` had an MIC of 13.2 µM (≈ 6.25 µg/mL).

In the case of `Cc1ccccc1[C@H]1N[C@@H](c2ccccc2C)CC(=O)[C@@H]1c1ccccc1`, 70.3 µM (≈ 25 µg/mL) was the least that counted as inhibitory (MIC).

In turn, `COc1ccccc1C1C(c2ccccc2)C(=O)C(c2ccccc2)C(c2ccccc2OC)N1N=O` (stereo not drawn) showed a minimum inhibitory concentration (MIC) of 6.35 µM (≈ 3.13 µg/mL).

On to `COc1ccc([C@H]2N[C@@H](c3ccc(OC)cc3)[C@H](c3ccccc3)C(=O)[C@@H]2c2ccccc2)cc1`, for which it took 27 µM (≈ 12.5 µg/mL) to inhibit growth (MIC).

With `CC[C@@H](CO)NCCN[C@@H](CC)CO` [ETHAMBUTOL], the MIC came out at 7.6 µM (≈ 1.55 µg/mL). Against the preceding compound, the MIC is about 3.6-fold lower.

In the case of `N#CN1C(c2ccc(F)cc2)CC(=O)C(c2ccccc2)C1c1ccc(F)cc1` (stereo not drawn), it took 16.1 µM (≈ 6.25 µg/mL) to inhibit growth (MIC).

For the compound `N#CN1C(c2ccccc2Cl)C(c2ccccc2)C(=O)C(c2ccccc2)C1c1ccccc1Cl` (stereo not drawn), 12.6 µM (≈ 6.25 µg/mL) was the least that counted as inhibitory (MIC).

With `Cc1ccccc1C1C(c2ccccc2)C(=O)C(c2ccccc2)C(c2ccccc2C)N1N=O` (stereo not drawn), the MIC came to 6.79 µM (≈ 3.13 µg/mL).

Compound `O=NN1C(c2ccccc2)C(c2ccccc2)C(=O)C(c2ccccc2)C1c1ccccc1` (stereo not drawn) came in with an MIC of 14.4 µM (≈ 6.25 µg/mL). This MIC is about 2.1-fold higher than that of the compound before.

On to `Cc1ccc([C@H]2N[C@@H](c3ccc(C)cc3)CC(=O)[C@@H]2c2ccccc2)cc1`, for which the MIC worked out at 70.3 µM (≈ 25 µg/mL).

The compound `O=NN1C(c2ccc(F)cc2)CC(=O)C(c2ccccc2)C1c1ccc(F)cc1` (stereo not drawn) showed an MIC of 3.97 µM (≈ 1.56 µg/mL). This MIC lies about 18-fold lower than the previous one.

With `O=C1[C@H](c2ccccc2)[C@@H](c2ccc(F)cc2)N[C@@H](c2ccc(F)cc2)[C@@H]1c1ccccc1`, inhibition of growth (MIC) required 7.12 µM (≈ 3.13 µg/mL). Against the preceding compound, the MIC is about 1.8-fold higher.

Consider `O=NN1C(c2ccc(Cl)cc2)C(c2ccccc2)C(=O)C(c2ccccc2)C1c1ccc(Cl)cc1` (stereo not drawn), for which the minimal inhibitory concentration (MIC) was found to be 3.11 µM (≈ 1.56 µg/mL).

With `N#CN1C(c2ccccc2)CC(=O)C(c2ccccc2)C1c1ccccc1` (stereo not drawn), the MIC amounted to 70.9 µM (≈ 25 µg/mL).

`Cc1ccc(C2CC(=O)C(c3ccccc3)C(c3ccc(C)cc3)N2C#N)cc1` (stereo not drawn) gave an MIC of 65.7 µM (≈ 25 µg/mL).

Regarding `N#CN1C(c2ccc(Cl)cc2)C(c2ccccc2)C(=O)C(c2ccccc2)C1c1ccc(Cl)cc1` (stereo not drawn), the MIC amounted to 25.1 µM (≈ 12.5 µg/mL).

Compound `O=NN1C(c2ccc(Cl)cc2)CC(=O)C(c2ccccc2)C1c1ccc(Cl)cc1` (stereo not drawn) yielded an MIC of 7.35 µM (≈ 3.13 µg/mL).

On to `NNC(=O)c1ccncc1` [ISONIAZID], for which the MIC was found to be 0.4 µM (≈ 0.0549 µg/mL).

As to `COc1ccc(C2C(c3ccccc3)C(=O)C(c3ccccc3)C(c3ccc(OC)cc3)N2N=O)cc1` (stereo not drawn), the lowest concentration to inhibit growth (MIC) was 12.7 µM (≈ 6.25 µg/mL).

As for `O=NN1C(c2ccccc2)CC(=O)C(c2ccccc2)C1c1ccccc1` (stereo not drawn), the MIC was 17.5 µM (≈ 6.25 µg/mL).

In turn, `Cc1ccccc1C1CC(=O)C(c2ccccc2)C(c2ccccc2C)N1N=O` (stereo not drawn) gave an MIC of 8.14 µM (≈ 3.13 µg/mL).

`Cc1ccccc1[C@H]1N[C@@H](c2ccccc2C)[C@H](c2ccccc2)C(=O)[C@@H]1c1ccccc1` showed a minimum inhibitory concentration (MIC) of 29 µM (≈ 12.5 µg/mL). This MIC lies about 3.6-fold higher than the previous one.

`COc1ccccc1[C@H]1N[C@@H](c2ccccc2OC)[C@H](c2ccccc2)C(=O)[C@@H]1c1ccccc1` displayed an MIC of 27 µM (≈ 12.5 µg/mL).

For `Cc1ccc([C@H]2N[C@@H](c3ccc(C)cc3)[C@H](c3ccccc3)C(=O)[C@@H]2c2ccccc2)cc1`, the MIC turned out to be 29 µM (≈ 12.5 µg/mL).

For the compound `O=C1[C@H](c2ccccc2)[C@@H](c2ccccc2Cl)N[C@@H](c2ccccc2Cl)[C@@H]1c1ccccc1`, the MIC came out at 13.2 µM (≈ 6.25 µg/mL). Compared with the last compound, the MIC is about 2.2-fold lower.

`COc1ccccc1[C@H]1N[C@@H](c2ccccc2OC)CC(=O)[C@@H]1c1ccccc1`: it took 64.5 µM (≈ 25 µg/mL) to inhibit growth (MIC).

Consider `O=C1[C@H](c2ccccc2)[C@@H](c2ccccc2)N[C@@H](c2ccccc2)[C@@H]1c1ccccc1`, for which 62 µM (≈ 25 µg/mL) was the least that counted as inhibitory (MIC).

Regarding `N#CN1C(c2ccccc2)C(c2ccccc2)C(=O)C(c2ccccc2)C1c1ccccc1` (stereo not drawn), it took 58.3 µM (≈ 25 µg/mL) to inhibit growth (MIC).

Take `Cc1ccccc1C1C(c2ccccc2)C(=O)C(c2ccccc2)C(c2ccccc2C)N1C#N` (stereo not drawn): the MIC is 27.4 µM (≈ 12.5 µg/mL).

The compound `Cc1ccc(C2CC(=O)C(c3ccccc3)C(c3ccc(C)cc3)N2N=O)cc1` (stereo not drawn) showed an MIC of 8.14 µM (≈ 3.13 µg/mL).

The compound `O=C1C[C@H](c2ccc(F)cc2)N[C@H](c2ccc(F)cc2)[C@H]1c1ccccc1` displayed an MIC of 34.4 µM (≈ 12.5 µg/mL).

With `Cc1ccc(C2C(c3ccccc3)C(=O)C(c3ccccc3)C(c3ccc(C)cc3)N2N=O)cc1` (stereo not drawn), the MIC came to 6.79 µM (≈ 3.13 µg/mL).

A word on the MIC: it is the lowest concentration found to suppress growth. The low end stands for greater potency, the high end for weaker potency.
